Holding throughout (format): in vivo
Test [1] has as its system Alopecurus myosuroides. The test can be described thus: Method A: post-emergence herbicidal action. Particulars: rated visually after about 3 weeks. On the procedure:
(§1) Method A: Post-Emergence Herbicidal Action and Crop Plant Compatibility
(§2) Seeds of monocotyledonous and dicotyledonous weeds and crop plants are placed in sandy loam in plastic or organic planting pots, covered with soil and cultivated in a greenhouse under controlled growth conditions. 2 to 3 weeks after sowing, the test plants are treated at the one-leaf stage. The compounds of the invention, formulated in the form of wettable powders (WP) or as emulsion concentrates (EC), are then sprayed onto the green parts of the plants as aqueous suspension or emulsion with addition of 0.5% additive at a water application rate of […] (converted). After the test plants have been kept in the greenhouse under optimum growth conditions for about 3 weeks, the activity of the preparations is rated visually in comparison to untreated controls. For example, 100% activity=the plants have died, 0% activity=like control plants.

For test [2], the system named is Avena fatua. Nature of the test: Method A: post-emergence herbicidal action. Particulars: rated visually after about 3 weeks. On the procedure: as §1, §2
Test [3] has as its system Echinochloa crus-galli. The test can be described thus: Method A: post-emergence herbicidal action. The settings on record: rated visually after about 3 weeks. On the procedure:
as §1, §2

The test system of test [4] is Hordeum murinum. The test can be described thus: Method A: post-emergence herbicidal action. The settings on record: rated visually after about 3 weeks. On the procedure:
as §1, §2

In test [5] the test system is Lolium rigidum. Nature of the test: Method A: post-emergence herbicidal action. The settings on record: rated visually after about 3 weeks. On the procedure:
as §1, §2

Test [6] has as its system Polygonum convolvulus. The test can be described thus: Method A: post-emergence herbicidal action. Particulars: rated visually after about 3 weeks. On the procedure: as §1, §2
Test [7] deals with Stellaria media. The test can be described thus: Method A: post-emergence herbicidal action. The settings on record: rated visually after about 3 weeks. How it is done: as §1, §2
In test [8] the test system is Abufilon theophrast. The test can be described thus: Method B: pre-emergence herbicidal action. Particulars: scored visually after about 3 weeks. The text has this:
(§3) Method B: Pre-Emergence Herbicidal Action and Crop Plant Compatibility
(§4) Seeds of monocotyledonous and dicotyledonous weed plants and crop plants are placed in plastic or organic planting pots and covered with soil. The compounds of the invention, formulated in the form of wettable powders (WP) or as emulsion concentrates (EC), are then applied onto the surface of the covering soil as aqueous suspension or emulsion with addition of 0.5% additive at a water application rate of […] (converted). After the treatment, the pots are placed in a greenhouse and kept under good growth conditions for the trial plants. After about 3 weeks, the effect of the preparations is scored visually in comparison with untreated controls as percentages. For example, 100% activity=the plants have died, 0% activity=like control plants.

The test system of test [9] is Alopecurus myosuroides. The test can be described thus: Method B: pre-emergence herbicidal action. The settings on record: scored visually after about 3 weeks.
Text: as §3, §4

Test [10] deals with Avena fatua. The test can be described thus: Method B: pre-emergence herbicidal action. Particulars: scored visually after about 3 weeks.
Text: as §3, §4

The test system of test [11] is Digitaria sanguinalis. The test can be described thus: Method B: pre-emergence herbicidal action. The settings on record: scored visually after about 3 weeks.
Text: as §3, §4

For test [12], the system named is Echinochloa crus-galli. Nature of the test: Method B: pre-emergence herbicidal action. Particulars: scored visually after about 3 weeks.
Text: as §3, §4

The test system of test [13] is Hordeum murinum. The test can be described thus: Method B: pre-emergence herbicidal action. Particulars: scored visually after about 3 weeks.
Text: as §3, §4

Test [14] concerns Lolium rigidum. The test can be described thus: Method B: pre-emergence herbicidal action. The settings on record: scored visually after about 3 weeks.
Text: as §3, §4

The subject of test [15] is Polygonum convolvulus. Nature of the test: Method B: pre-emergence herbicidal action. Particulars: scored visually after about 3 weeks.
Text: as §3, §4

In test [16] the test system is Stellaria media. The test can be described thus: Method B: pre-emergence herbicidal action. Particulars: scored visually after about 3 weeks.
Text: as §3, §4

The subject of test [17] is Agrostis tenuis. The test can be described thus: Method E: herbicidal early post-emergence action. The settings on record: cotyledon stage, 96-well microtiter plates, scored visually after 9 to 12 days. On the procedure:
(§5) Method E: Herbicidal Early Post-Emergence Action Seeds of monocotyledonous or dicotyledonous weed plants are placed in 96-well microtiter plates in quartz sand and grown in a climatized chamber under controlled growth conditions. 5 to 7 days after sowing, the test plants are treated at the cotyledon stage. The compounds of the invention, formulated in the form of emulsion concentrates (EC), are applied with a water application rate of the equivalent of 2200 liters per hectare. After the test plants had been left to stand in the climatized chamber for 9 to 12 days under optimum growth conditions, the effect of the preparations is scored visually in comparison to untreated controls. For example, 100% activity=the plants have died, 0% activity=like control plants.

For test [18], the system named is Matricaria chamonilla. Nature of the test: Method E: herbicidal early post-emergence action. The settings on record: cotyledon stage, 96-well microtiter plates, scored visually after 9 to 12 days. How it is done:
as §5

For test [19], the system named is Poa annua. Nature of the test: Method E: herbicidal early post-emergence action. The settings on record: cotyledon stage, 96-well microtiter plates, scored visually after 9 to 12 days. How it is done: as §5
Test [20] relates to harmful plants. Nature of the test: Method A: post-emergence herbicidal action, summary in text. The settings on record: applied post-emergence, table A (320 g/ha). On the procedure:
as §1, §2

The test system of test [21] is harmful plants. The test can be described thus: Method B: pre-emergence herbicidal action, summary in text. Particulars: applied pre-emergence, table B (320 g/ha).
Text: as §3, §4

The subject of test [22] is harmful plants. The test can be described thus: Method E: herbicidal early post-emergence action, summary in text. The settings on record: applied in early post-emergence, table E (1900 g/ha). How it is done: as §5
Test [23] deals with Lolium perenne. Nature of the test: Method E: herbicidal early post-emergence action. Particulars: cotyledon stage, 96-well microtiter plates, scored visually after 9 to 12 days. How it is done: as §5
Test [24] deals with Stellaria media. The test can be described thus: Method E: herbicidal early post-emergence action. Particulars: cotyledon stage, 96-well microtiter plates, scored visually after 9 to 12 days. How it is done: as §5

With `CCOC(=O)C(=O)Cc1nc(C2CC2)ncc1-c1ccccc1Cl` [II-099, ethyl 3-[5-(2-chlorophenyl)-2-cyclopropylpyrimidin-4-yl]-2-oxopropanoate], in test [1], the “Post-emergence action at 320 g/ha ALOMY” value was found to be 90%. For the same compound, in test [2], the “Post-emergence action at 320 g/ha AVEFA” value came out at 90%. For the same compound, in test [3], the “Post-emergence action at 320 g/ha ECHCG” value stood at 90%. For the same compound, the “Post-emergence action at 320 g/ha HORMU” value in test [4] is listed as 80%. Moreover, the “Post-emergence action at 320 g/ha LOLRI” value in test [5] came out at 100%. Besides, the “Post-emergence action at 320 g/ha POLCO” value in [6] came out at 90%. Besides, the “Post-emergence action at 320 g/ha STEME” value in test [7] came to 100%. The “Pre-emergence action at 320 g/ha ABUTH” value in test [8] worked out at 80%. In addition, the “Pre-emergence action at 320 g/ha ALOMY” value in test [9] amounted to 100%. Also, the “Pre-emergence action at 320 g/ha AVEFA” value in test [10] is recorded as 90%. The “Pre-emergence action at 320 g/ha DIGSA” value in [11] worked out at 90%. The “Pre-emergence action at 320 g/ha ECHCG” value in [12] is recorded as 100%. In test [13], the “Pre-emergence action at 320 g/ha HORMU” value turned out to be 90%. The “Pre-emergence action at 320 g/ha LOLRI” value in test [14] came out at 100%. The “Pre-emergence action at 320 g/ha POLCO” value in [15] came out at 90%. Moreover, the “Pre-emergence action at 320 g/ha STEME” value in test [16] amounted to 100%. Further, the “Early post-emergence action at 1900 g/ha AGSTE” value in test [17] amounted to 100%. For the same compound, in [18], the “Early post-emergence action at 1900 g/ha MATCH” value came out at 100%. The “Early post-emergence action at 1900 g/ha POAAN” value in test [19] is given as 100%. Besides, the “herbicidal efficacy against harmful plants” value in test [20], in test [21] and in test [22] was “very good herbicidal efficacy” throughout.
Regarding `O=C(Cc1nc(C2CC2)ncc1-c1c(F)cccc1Cl)C(=O)N1CCCCC1` [Example I-146, 3-[5-(2-chloro-6-fluorophenyl)-2-cyclopropylpyrimidin-4-yl]-1-(piperidin-1-yl)propane-1,2-dione], the “Early post-emergence action at 1900 g/ha AGSTE” value in [17] stood at 80%. In addition, in [23], the “Early post-emergence action at 1900 g/ha LOLPE” value is 80%. Also, the “Early post-emergence action at 1900 g/ha MATCH” value in test [18] amounted to 80%. In test [19], the “Early post-emergence action at 1900 g/ha POAAN” value was 80%. Besides, the “Early post-emergence action at 1900 g/ha STEME” value in test [24] amounted to 80%.

The values above are taken from patent US11390589B2, “Herbicidally active substituted phenylpyrimidines” (Bayer Aktiengesellschaft, priority 2018, dated 2022).
